The test system of one experiment is rats. Further details: method as in PMID 26349500. The conditions noted are these: cited from earlier work.
The next experiment deals with T1, GPR139 E108Q3x32 (Homo sapiens, UniProt Q6DWJ6, E108Q).
T1 construct: mGluR5 signal peptide (N); expressed in transfected cells; host or cells: HEK293
T1 sequence (Q6DWJ6 2-353 E108Q limits assumed): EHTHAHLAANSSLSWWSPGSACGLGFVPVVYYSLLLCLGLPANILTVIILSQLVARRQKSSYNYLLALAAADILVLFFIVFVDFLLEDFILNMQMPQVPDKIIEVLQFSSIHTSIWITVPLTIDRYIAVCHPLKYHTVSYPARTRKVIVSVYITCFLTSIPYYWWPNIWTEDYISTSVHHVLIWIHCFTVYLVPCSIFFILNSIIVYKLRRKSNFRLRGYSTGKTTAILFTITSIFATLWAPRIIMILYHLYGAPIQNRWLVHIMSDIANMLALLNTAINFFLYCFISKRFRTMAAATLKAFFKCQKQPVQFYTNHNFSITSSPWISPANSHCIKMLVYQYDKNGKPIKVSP
Briefly: Fluo-4 Ca2+-assay, GPR139 mutant E108Q. It counts as cell-based. An excerpt:
(§1) To study the influence of specific amino acids in the predicted binding pocket on receptor function, the desired mutations were introduced into an N-terminally c-myc-tagged wild type human GPR139 (NM_001002911.3) in the pEGFP-N1 vector (BD Biosciences)[32], [33]. As previously described, these plasmids carry the signal peptide of mGluR5 to promote cell surface expression followed by a c-myc epitope to enable detection of total and surface expression by ELISA, followed by an engineered MluI and NotI site for easy insertion of the receptor of interest. Furthermore, the start-codon in the GPR139 sequence was deleted to ensure c-myc-tagging. Mutagenesis was designed in Serial Cloner 2.6 (© Franck Perez [SerialBasics]) and carried out by GenScript (USA). All mutated residues are illustrated in Supplementary Fig. 1b. An untagged GPR139(WT) in pEGFP-N1 was also generated to ensure that the c-myc-tag had no influence on GPR139(WT) function.
All GPR139 mutants were transfected into HEK293 cells. The HEK293 cells were grown in Dulbecco’s modified Eagle’s medium (DMEM) (Gibco, 41965) supplemented with 10% dialyzed fetal bovine serum (Gibco, 26400, United States origin), 100 units/mL penicillin and 100 μg/mL streptomycin (Gibco, 15140). HEK293 cells were reverse transfected using Lipofectamine2000 (Invitrogen). […]
(§2) The Ca^2+ measurements were preformed using the Fluo-4 NW Calcium Assay Kit (Invitrogen, Molecular Probes, F36206) as previously described. […] Intracellular calcium changes were recorded as indicated on either a NOVOstar (BMG Labtech) at 37 °C with an excitation filter of 485 nm and an emission filters 520 nm or a FlexStation 3 Benchtop Multi-Mode Microplate Reader (Molecular Devices) at 37 °C with an excitation wavelength of 485 nm and emission of 525 nm.
(§3) All pharmacological data have been analyzed by using Prism 6.0 (GraphPad Software Inc., San Diego). […] Changes in potency (pEC50) and span of myc-GPR139(WT) in comparison to untagged GPR139(WT) was statistically analyzed with a paired t-test and significance was accepted at p < 0.05. […]

The next experiment concerns the target T2, GPR139 E105Q3x29 (Homo sapiens, UniProt Q6DWJ6, E105Q).
T2 construct: mGluR5 signal peptide (N); expressed in transfected cells; host or cells: HEK293
T2 sequence (Q6DWJ6 2-353 E105Q limits assumed): T1 sequence (Q6DWJ6 2-353 E108Q limits assumed) with E104Q, Q107E
Briefly: Fluo-4 Ca2+-assay, GPR139 mutant E105Q. It counts as cell-based.
Description: as §1, with “Mutagenesis was designed in Serial Cloner 2.6 (© Franck Perez [SerialBasics]) and carried out by GenScript (USA). All mutated residues are illustrated in Supplementary Fig. 1b. An untagged GPR139(WT) in pEGFP-N1 was also generated to ensure that the c-myc-tag had no influence on GPR139(WT) function.” left out
as §2, §3

Changes are numbered by the printed parent chain.

Regarding `C[C@@H](NC(=O)CNC(=O)c1cccc(Cl)c1)c1ccccc1` (racemic) [Compound 7c], the spontaneous locomotion activity entry in the experiment on rats is on record as “decreased spontaneous locomotion activity”.
Consider `COc1cc(OC)cc(C(=O)NNC(=O)Nc2cccc3ccccc23)c1` [Compound 1a], for which the EC50 at GPR139 E108Q3x32 (E108Q mutant) was 1.51 µM; at GPR139 E105Q3x29 (E105Q mutant), 0.145 µM. Further, the potency reduction on GPR139 E108Q3x32 (E108Q mutant versus WT) came out at 6 fold. Also, the Emax is 217 ± 21% on GPR139 E108Q3x32 (E108Q, normalized to buffer (0%) and 8 µM 1a (100%)); 177 ± 36% at GPR139 E105Q3x29 (E105Q, normalized to buffer (0%) and 8 µM 1a (100%)).

The EC50 is the concentration that produces a half-maximal response. Lower therefore signals greater potency. What is called Emax is the maximal effect, on the per cent scale that the assay sets.

The values above are taken from publication PMC5430874 (Scientific Reports, 2017).
